Experiments:
Assay in all cases: relative viability (nuclei count vs DMSO), 5 days (fraction); higher = more cells survive
NCI-H1563 = conditions: first compound 0.02 µM
How it was run: (§1)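 Medians of duplicate plates are given as relative viability. That measure is the nuclei count in treated wells divided by the count in vehicle wells. Counts were taken on 4× images of lung cancer cell lines in 1536-well plates, 5 days after pin-tool dosing the day after seeding with one drug alone or a fixed anchor-drug dose plus five library-drug doses (not always all listed) in √10 steps.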

NCI-H1650 = tested on: NCI-H1650
How it was run: as §1

NCI-H1793 = tested on: NCI-H1793
How it was run: as §1

NCI-H2228 = tested on: NCI-H2228
How it was run: as §1

NCI-H2347 = tested on: NCI-H2347
How it was run: as §1

NCI-H23 = tested on: NCI-H23
How it was run: as §1

NCI-H460 = tested on: NCI-H460
How it was run: as §1

NCI-H596 = tested on: NCI-H596
How it was run: as §1

NCI-H727 = tested on: NCI-H727
How it was run: as §1

PC-14 = tested on: PC-14
How it was run: as §1

SW 1573 = tested on: SW 1573
How it was run: as §1

SW 900 = tested on: SW 900
How it was run: as §1

**Q.** For `CC(=O)O[C@@]12CO[C@@H]1C[C@H](O)[C@@]1(C)C(=O)[C@H](O)C3=C(C)[C@@H](OC(=O)[C@H](O)[C@@H](NC(=O)OC(C)(C)C)c4ccccc4)C[C@@](O)([C@@H](OC(=O)c4ccccc4)[C@H]21)C3(C)C` [Docetaxel] + N=C(N)NC(=N)NCCc1ccccc1 [Phenformin] (partner 250 µM), which relative viability (NCI-H1563) is on record?
**A.** 0.479

**Q.** What about the relative viability (NCI-H1650; first compound 0.0002 µM) of the same compound?
**A.** 0.349

**Q.** And the relative viability (NCI-H1650; first compound 0.000632 µM)?
**A.** 0.287

**Q.** And the relative viability (NCI-H1650; first compound 0.006325 µM)?
**A.** 0.147

**Q.** And the relative viability (NCI-H1650; first compound 0.02 µM)?
**A.** 0.0956

**Q.** What about the relative viability (NCI-H1793; first compound 0.0002 µM) of the same compound?
**A.** 0.302

**Q.** And the relative viability (NCI-H1793; first compound 0.000632 µM)?
**A.** 0.319

**Q.** What about the relative viability (NCI-H1793; first compound 0.002 µM) of the same compound?
**A.** 0.322

**Q.** What about the relative viability (NCI-H1793; first compound 0.006325 µM) of the same compound?
**A.** 0.245

**Q.** And the relative viability (NCI-H1793; first compound 0.02 µM)?
**A.** 0.173

**Q.** What about the relative viability (NCI-H2228; first compound 0.0002 µM) of the same compound?
**A.** 0.302

**Q.** And the relative viability (NCI-H2228; first compound 0.000632 µM)?
**A.** 0.173

**Q.** And the relative viability (NCI-H2228; first compound 0.002 µM)?
**A.** 0.147

**Q.** And the relative viability (NCI-H2228; first compound 0.006325 µM)?
**A.** 0.158

**Q.** What about the relative viability (NCI-H2228; first compound 0.02 µM) of the same compound?
**A.** 0.123

**Q.** And the relative viability (NCI-H2347; first compound 0.0002 µM)?
**A.** 0.496

**Q.** What about the relative viability (NCI-H2347; first compound 0.000632 µM) of the same compound?
**A.** 0.303

**Q.** And the relative viability (NCI-H2347; first compound 0.002 µM)?
**A.** 0.295

**Q.** And the relative viability (NCI-H2347; first compound 0.006325 µM)?
**A.** 0.201

**Q.** What about the relative viability (NCI-H2347; first compound 0.02 µM) of the same compound?
**A.** 0.256

**Q.** What about the relative viability (NCI-H23; first compound 0.0002 µM) of the same compound?
**A.** 0.801

**Q.** And the relative viability (NCI-H23; first compound 0.000632 µM)?
**A.** 0.702

**Q.** And the relative viability (NCI-H23; first compound 0.002 µM)?
**A.** 0.475

**Q.** And the relative viability (NCI-H23; first compound 0.006325 µM)?
**A.** 0.2

**Q.** What about the relative viability (NCI-H23; first compound 0.02 µM) of the same compound?
**A.** 0.121

**Q.** What about the relative viability (NCI-H460; first compound 0.0002 µM) of the same compound?
**A.** 0.481

**Q.** And the relative viability (NCI-H460; first compound 0.000632 µM)?
**A.** 0.351

**Q.** And the relative viability (NCI-H460; first compound 0.002 µM)?
**A.** 0.0311

**Q.** And the relative viability (NCI-H460; first compound 0.006325 µM)?
**A.** 0.0221

**Q.** And the relative viability (NCI-H460; first compound 0.02 µM)?
**A.** 0.0125

**Q.** What about the relative viability (NCI-H596; first compound 0.0002 µM) of the same compound?
**A.** 0.827

**Q.** And the relative viability (NCI-H596; first compound 0.000632 µM)?
**A.** 0.773

**Q.** And the relative viability (NCI-H596; first compound 0.002 µM)?
**A.** 0.635

**Q.** And the relative viability (NCI-H596; first compound 0.006325 µM)?
**A.** 0.438

**Q.** And the relative viability (NCI-H596; first compound 0.02 µM)?
**A.** 0.235

**Q.** What about the relative viability (NCI-H727; first compound 0.0002 µM) of the same compound?
**A.** 0.49

**Q.** What about the relative viability (NCI-H727; first compound 0.000632 µM) of the same compound?
**A.** 0.601

**Q.** And the relative viability (NCI-H727; first compound 0.002 µM)?
**A.** 0.457

**Q.** And the relative viability (NCI-H727; first compound 0.006325 µM)?
**A.** 0.472

**Q.** What about the relative viability (NCI-H727; first compound 0.02 µM) of the same compound?
**A.** 0.354

**Q.** And the relative viability (PC-14; first compound 0.0002 µM)?
**A.** 0.575

**Q.** And the relative viability (PC-14; first compound 0.000632 µM)?
**A.** 0.212

**Q.** What about the relative viability (PC-14; first compound 0.002 µM) of the same compound?
**A.** 0.129

**Q.** What about the relative viability (PC-14; first compound 0.006325 µM) of the same compound?
**A.** 0.0718

**Q.** What about the relative viability (PC-14; first compound 0.02 µM) of the same compound?
**A.** 0.0382

**Q.** What about the relative viability (SW 1573; first compound 0.0002 µM) of the same compound?
**A.** 0.311

**Q.** What about the relative viability (SW 1573; first compound 0.000632 µM) of the same compound?
**A.** 0.344

**Q.** What about the relative viability (SW 1573; first compound 0.002 µM) of the same compound?
**A.** 0.159

**Q.** What about the relative viability (SW 1573; first compound 0.02 µM) of the same compound?
**A.** 0.119

**Q.** What about the relative viability (SW 900; first compound 0.0002 µM) of the same compound?
**A.** 0.389

**Q.** What about the relative viability (SW 900; first compound 0.000632 µM) of the same compound?
**A.** 0.235

**Q.** And the relative viability (SW 900; first compound 0.002 µM)?
**A.** 0.262

**Q.** What about the relative viability (SW 900; first compound 0.006325 µM) of the same compound?
**A.** 0.167

**Q.** And the relative viability (SW 900; first compound 0.02 µM)?
**A.** 0.0976
